# Results from paper PMC7613620, “Reaction hijacking of tyrosine tRNA synthetase as a whole-of-life-cycle antimalarial strategy” (Science (New York, N.Y.), 2022).
# Read-outs that look alike come from different tables or passages of the source.
# Columns and labels:
# H1650 = H1650 cell viability (ATP content); assay type: cell-based; conditions: Homo sapiens, NCI-H1650, read-out: H1650 IC50(72h); 72 h; ATG7-null cell line
# Experimental: (§1) 574 H1650 is a human lung cancer derived ATG7-null cell line (49) that can be used to assess effects on targets
# (§2) 576 adenocarcinoma; bronchoalveolar carcinoma). Other cells lines used are: H460 (NCI-H460; human lung;
# (§3) 577 carcinoma; large cell lung cancer; ATCC: HTB-177); and HCT116 (human colon; colorectal carcinoma;
# (§4) 578 ATCC: CCL-247; Lot : 5056139). Each of the cell lines was received from the American Type Culture
# (§5) 579 Collection (ATCC) and passaged twice before freezing. Cells were cultured in the presence or absence of
# (§6) 580 inhibitors and cell viability was assessed by comparing the ATP content in compound-treated wells with
# 581 that in DMSO-treated wells as previously described (11). […]
# 585 37°C humidified incubator as adherent semi-confluent monolayers in complete Dulbecco’s Modified Eagle
# 586 Media (c-DMEM). DMEM (Gibco™, Thermo Fisher Scientific, Australia) was supplemented with 10%
# P. falciparum (3D7) = P. falciparum (3D7) culture growth inhibition, 72 h; assay type: cell-based, Plasmodium falciparum; conditions: for IC50: Plasmodium falciparum
# Experimental: (1 picture or pasted object on this page, not shown here)
# 553 Sigma-Aldrich) for 48-72 h. For drug pulse assays, tightly synchronized parasites (1-1.5% parasitemia,
# 554 0.2% final hematocrit) were added to the plates and incubated for 3 h. Drugs were removed and the
# 555 parasitemia assessed in the trophozoite stage of the next cycle.
# 557 Compounds were tested against a range of drug resistant field isolates and laboratory strains using a
# 558 modified [3H]-hypoxanthine incorporation assay, as previously reported (46). Field isolates 7G8, Cam3.1,
# 559 Dd2, K1, TM90C2B and NF54 were obtained from MR4 (www.beiresources.org).
# 561 Mammalian cell culture experiments
# 562 The HepG2 (Human hepatocyte carcinoma) cell line was procured from ATCC (American Type
# 563 Culture Collection, Manassas, USA; HB-8065) and viability assessed using Cell Titer-GLO luminescent
# 564 cell viability assay reagents (Promega, catalogue number: G7570) (47, 48). For the assay, 2000 cells/well
# 565 were plated in 384-well plates 24 h prior to the experiment and incubated at 37°C in a CO2 incubator. The
# 566 medium was removed and cells were treated with fresh medium containing either vehicle (0.5% DMSO)
# 567 or serially diluted test compounds or doxorubicin (1.3 nM to 25 µM) in a final volume of 50 µl/well and
# 568 further incubated for 72 h at 37°C in a CO2 incubator.
# 569 were treated with 5 µl of 1% Triton X-100 (final assay conc. 0.1%). Following incubation, 25 µl of medium
# 570 was discarded and 25 µl of Cell Titer-GLO reagent was added to each well and the plate was kept on a plate
# 571 shaker for 15 min at 25°C with shaking at 300 rpm. Luminescence signals were measured in a Spectramax
# 572 M5 reader (Molecular Devices).
# as §1, §2, §3, §4, §5, §6
# 581 that in DMSO-treated wells as previously described (11).
# 583 HeLa cells (human cervical adenocarcinoma; genome sequenced (Garvin Institute, Australia) and verified
# [1] = molecular target: NEDD8-activating enzyme (NAE) (Homo sapiens, UniProt Q8TBC4); assay: E1-E2 transthiolation HTRF assay, NAE; assay type: biochemical
# Chain of NEDD8-activating enzyme (NAE) (Q8TBC4 whole entry): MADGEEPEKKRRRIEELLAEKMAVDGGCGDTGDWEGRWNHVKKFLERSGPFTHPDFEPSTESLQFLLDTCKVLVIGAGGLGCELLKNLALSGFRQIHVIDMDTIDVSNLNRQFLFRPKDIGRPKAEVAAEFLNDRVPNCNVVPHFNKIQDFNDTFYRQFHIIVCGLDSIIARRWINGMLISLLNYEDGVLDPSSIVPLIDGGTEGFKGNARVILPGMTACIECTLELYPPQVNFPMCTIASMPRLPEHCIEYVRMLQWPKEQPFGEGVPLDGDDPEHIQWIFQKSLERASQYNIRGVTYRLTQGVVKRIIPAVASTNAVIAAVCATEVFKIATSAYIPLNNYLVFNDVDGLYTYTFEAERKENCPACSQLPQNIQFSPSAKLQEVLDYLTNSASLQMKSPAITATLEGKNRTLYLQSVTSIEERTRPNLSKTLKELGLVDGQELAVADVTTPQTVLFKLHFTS
# Chain of NEDD8-activating enzyme (NAE) (Q13564 whole entry partner): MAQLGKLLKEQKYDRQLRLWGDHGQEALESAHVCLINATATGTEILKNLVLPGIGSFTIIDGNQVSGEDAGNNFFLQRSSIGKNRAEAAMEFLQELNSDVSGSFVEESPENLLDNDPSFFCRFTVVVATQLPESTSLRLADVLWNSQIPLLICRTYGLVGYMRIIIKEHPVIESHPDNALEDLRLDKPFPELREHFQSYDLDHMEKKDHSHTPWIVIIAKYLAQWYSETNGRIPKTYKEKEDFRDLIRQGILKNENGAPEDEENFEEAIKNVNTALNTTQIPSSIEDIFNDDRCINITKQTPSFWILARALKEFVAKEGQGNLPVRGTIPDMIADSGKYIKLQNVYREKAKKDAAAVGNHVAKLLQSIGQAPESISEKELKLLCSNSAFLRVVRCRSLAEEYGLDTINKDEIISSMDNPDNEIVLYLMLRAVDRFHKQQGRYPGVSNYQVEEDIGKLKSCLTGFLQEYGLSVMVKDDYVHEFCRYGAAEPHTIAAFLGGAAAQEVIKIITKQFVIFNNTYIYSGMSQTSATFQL
# Source text: 592 E1-E2 Transthiolation Assays
# 593 An Homogeneous Time-Resolved Fluorescence (HTRF) enzyme assay was employed to evaluate
# 594 compound activity against ATG7 as previously described (11). In this assay, a Flag-tagged ATG8 homolog
# 595 (GABA type A receptor-associated protein; GABARAP) is activated by ATG7 and then transthiolated to a
# 596 GST-tagged E2 (ATG3). The product of the enzyme reaction, Flag-GABARAP-ATG3-GST, is quantified
# 597 by measuring FRET between Europium-Cryptate labelled monoclonal anti-Flag M2 (CisBio International,
# 598 Cat# 61FG2KLB) and PHYCOLINK goat anti-GST allophycocyanin (Prozyme, PJ252p1). The activation
# 599 and transthiolation of ubiquitin by Ubiquitin Activating Enzyme, activation and transthiolation of NEDD8
# 600 by NEDD8 Activating Enzyme. […]
# 606 Compounds were incubated with mature stage V gametocytes ([…], kind gift from Professor Chris Janse
# 607 at Leiden University Medical Center (LUMC), the Netherlands) for 48 hours in 384 well plates before
# 608 gamete formation was triggered by a drop in temperature and addition of xanthurenic acid. […]
# 611 Multiple data sets using different gametocyte cultures were collected on each of two separate days.
# 613 Activity against exoerythrocytic stages
# 614 Primary human hepatocytes (H1500.H15B+ Lot No. HC10-10 Cryopreserved human hepatocytes) […]
# [2] = test system: eIF2α phosphorylation in P. falciparum; assay: Western blot for phosphorylated-eIF2α; assay type: cell-based, Plasmodium falciparum
# Experimental: Synchronous ring-stage YRScyt conditional knockdown line and the aptamer-regulatable control
# 700 the drug plate. Lowest drug treatment and a lethal dose of chloroquine (200 nM) served as reference
# Two guide RNAs (gRNA1: […] and gRNA2:
# Ring-stage P. falciparum parasites (Dd2 strain) at 10%
# Using a modification of a published procedure (14), the
# 722 cells were labelled with O-propargyl-puromycin (OPP; 4 µM) for 1 h, washed 3x (PBS +3% serum) and
# Flow cytometry was performed
# 730 hematocrit and 5% parasitemia. The RBC pellet was washed 3 x in PBS + cOmplete. Cells were centrifuged
# The wash with PBS + cOmplete and
# The pellet was resuspended in Bolt LDS sample
# The samples were vortexed for 10 min at room temperature.
# Secondary antibodies: goat
# 740 anti-rabbit IgG-peroxidase (Sigma-Aldrich-A0545; 1:20 000), goat anti-mouse IgG-peroxidase (Chemicon-
# Chemiluminescence was detected using the Bio-Rad ChemiDocTM MP imaging
# For the human mature YRS construct,
# The YRS sequences were codon optimized for E. coli,
# The vector was transformed into
# PfYRS, PfYRSS234C and HsYRS were induced
# Cell pellets were resuspended in 40 mL lysis
# Cells were lysed by sonication (Microtip, QSonica)
# The supernatant was applied to a 5
# 757 mL HisTrap HP column (GE Healthcare) and washed with 50 mL binding buffer containing 50 mM Tris-
# His-YRS was eluted using a 0-500 mM
# The eluted His-YRS was dialyzed overnight at 4°C
# 760 against 50 mM Tris-HCl, pH 8, 500 mM NaCl, 30 mM imidazole, 1 mM TCEP with the addition of His-
# Cleaved His tags from His-YRS and TEV
# YRS was further purified by gel filtration using a HiLoad 16/600 Superdex 200 column (GE
compound,measurement,setting,value
Nc1ncnc2c1c(OC(F)F)nn2[C@@H]1O[C@H](COS(N)(=O)=O)[C@@H](O)[C@H]1O [ML901],IC50,H1650,10700 nM
same,higher selectivity than AMS,"P. falciparum (3D7); P. falciparum versus mammalian cell lines, compared with AMS","> 1,000 fold"
same,IC50,"P. falciparum (3D7); read-out: Pf3D7 IC50(72h), P. falciparum 3D7, 72 h",2 ± 0.1 nM
same,IC50,"P. falciparum (3D7); 3D7 parent of the in vitro evolution experiment, 72 h, read-out: IC50 (3D7)",1.9 ± 0.1 nM
same,selectivity towards P. falciparum,P. falciparum (3D7); versus different mammalian cell lines,"800- to 5,000 fold"
same,IC50,[1],> 1000 nM
same,eIF2α phosphorylation,[2]; eIK1 knockout parasites,does not result in eIF2α phosphorylation
same,eIF2α phosphorylation,[2]; wildtype P. falciparum cultures,triggers eIF2α phosphorylation
